ChEMBL document CHEMBL5260810, “Inhibition of bromodomain-containing protein 9 for the prevention of epigenetically-defined drug resistance” (Bioorg Med Chem Lett, 2017)

Experiments:
[1] = target: T1, Adenosine receptor A1 (Homo sapiens) (UniProt P30542); assay: Displacement of [3H]-DPCPX from human recombinant adenosine A1 receptor at 10 uM after 60 mins by scintillation counting analysis relative to control
T1 sequence (whole entry): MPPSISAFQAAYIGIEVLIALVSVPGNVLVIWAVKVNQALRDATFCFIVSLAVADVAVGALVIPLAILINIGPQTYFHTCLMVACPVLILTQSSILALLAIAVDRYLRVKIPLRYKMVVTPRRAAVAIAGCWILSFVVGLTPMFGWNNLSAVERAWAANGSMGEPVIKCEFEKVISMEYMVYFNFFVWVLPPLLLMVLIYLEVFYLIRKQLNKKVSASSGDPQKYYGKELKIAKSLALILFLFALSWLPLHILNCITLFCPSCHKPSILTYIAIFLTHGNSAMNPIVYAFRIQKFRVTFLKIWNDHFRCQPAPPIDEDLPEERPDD

[2] = target: Bromodomain-containing protein 3 (Homo sapiens, UniProt Q15059); assay: Binding affinity to human partial length BRD3 bromodomain 2 (G306 to P416 residues) expressed in bacterial expression system by BROMOscan assay
[3] = target: 5-hydroxytryptamine receptor 2B (Homo sapiens) (UniProt P41595); assay: Displacement of [125I]+/-DOI from human recombinant 5-HT2B receptor at 10 uM after 60 mins by scintillation counting analysis relative to control
[4] = target: T2, Bromodomain-containing protein 4 (Homo sapiens, UniProt O60885); assay: Displacement of biotinylated small-molecule ligand from recombinant His-tagged BRD4 bromodomain 1 (unknown origin) measured after 10 mins by TR-FRET assay
[5] = target: T2, Bromodomain-containing protein 4; assay: Binding affinity to human partial length BRD4 bromodomain 2 long isoform (K333 to E460 residues) expressed in bacterial expression system by BROMOscan assay
NCI-H1581 = assay: Cytotoxicity against human NCI-H1581 cells measured after 8 days; assay type: functional, cell-based; settings: NCI-H1581, 192 h
MDA-MB-468 = assay: Cytotoxicity against human MDA-MB-468 cells measured after 8 days; assay type: functional, cell-based; settings: MDA-MB-468, 192 h
NCI-H292 = assay: Cytotoxicity against human NCI-H292 cells measured after 8 days; assay type: functional, cell-based; settings: NCI-H292, 192 h
[6] = target: T3, Bromodomain and PHD finger-containing protein 3 (Homo sapiens, UniProt Q9ULD4); assay: Binding affinity to human partial length BRPF3 (E588 to G701 residues) expressed in bacterial expression system by BROMOscan assay
T3 sequence (Q9ULD4 whole entry): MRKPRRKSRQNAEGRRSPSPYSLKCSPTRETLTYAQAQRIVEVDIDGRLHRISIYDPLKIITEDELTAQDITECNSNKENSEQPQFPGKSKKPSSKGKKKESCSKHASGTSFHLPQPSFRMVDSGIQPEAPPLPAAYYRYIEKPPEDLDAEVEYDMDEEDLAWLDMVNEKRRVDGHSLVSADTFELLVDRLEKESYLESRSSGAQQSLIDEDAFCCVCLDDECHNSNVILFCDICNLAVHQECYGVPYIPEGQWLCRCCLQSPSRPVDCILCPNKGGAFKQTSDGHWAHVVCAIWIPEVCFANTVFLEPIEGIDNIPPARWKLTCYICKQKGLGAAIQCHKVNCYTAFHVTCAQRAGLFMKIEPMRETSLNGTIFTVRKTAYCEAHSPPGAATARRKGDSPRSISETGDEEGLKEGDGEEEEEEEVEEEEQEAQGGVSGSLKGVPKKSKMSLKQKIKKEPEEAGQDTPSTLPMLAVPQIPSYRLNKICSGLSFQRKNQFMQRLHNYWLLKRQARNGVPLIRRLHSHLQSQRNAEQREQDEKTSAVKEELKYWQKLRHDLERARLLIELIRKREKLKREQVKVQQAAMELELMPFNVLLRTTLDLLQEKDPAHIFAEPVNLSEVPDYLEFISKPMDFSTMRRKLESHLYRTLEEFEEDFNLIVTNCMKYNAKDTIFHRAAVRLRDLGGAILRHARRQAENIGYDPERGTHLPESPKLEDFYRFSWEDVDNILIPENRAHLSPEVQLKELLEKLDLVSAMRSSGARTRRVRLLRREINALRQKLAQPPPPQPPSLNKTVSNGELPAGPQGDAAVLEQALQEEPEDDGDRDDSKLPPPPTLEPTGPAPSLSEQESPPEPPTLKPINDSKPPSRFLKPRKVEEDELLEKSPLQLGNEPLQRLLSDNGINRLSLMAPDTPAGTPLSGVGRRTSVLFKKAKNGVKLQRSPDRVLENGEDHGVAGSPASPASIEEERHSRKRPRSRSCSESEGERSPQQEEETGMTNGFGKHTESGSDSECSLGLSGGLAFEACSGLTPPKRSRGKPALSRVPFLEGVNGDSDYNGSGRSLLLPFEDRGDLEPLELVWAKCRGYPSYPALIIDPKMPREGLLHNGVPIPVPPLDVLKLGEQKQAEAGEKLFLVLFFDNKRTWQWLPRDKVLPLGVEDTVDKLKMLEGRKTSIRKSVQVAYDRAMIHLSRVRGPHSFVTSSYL

Rattus norvegicus = species: Rattus norvegicus; assay: Displacement of [3H]batrachotoxinin from rat brain sodium voltage gated ion channel site 2 at 10 uM after 60 mins by scintillation counting analysis relative to control
HCC4006 = assay: Cytotoxicity against human HCC4006 cells measured after 8 days; assay type: functional, cell-based; settings: HCC4006, 192 h
CAL-12T = assay: Cytotoxicity against human CAL-12T cells measured after 8 days; assay type: functional, cell-based; settings: 192 h
COLO 320DM = assay: Cytotoxicity against human COLO 320DM cells measured after 8 days; assay type: functional, cell-based; settings: 192 h
EB-3 = assay: Cytotoxicity against human EB-3 cells measured after 8 days; assay type: functional, cell-based; settings: EB-3, 192 h
WSUDLCL2 = assay: Cytotoxicity against human WSUDLCL2 cells measured after 8 days; assay type: functional, cell-based; settings: WSUDLCL2, 192 h
[7] = Cytotoxicity against human NCI-H2110 cells measured after 8 days; assay type: functional, cell-based; settings: NCI-H2110, 192 h
MDA-MB-436 = assay: Cytotoxicity against human MDA-MB-436 cells measured after 8 days; assay type: functional, cell-based; settings: MDA-MB-436, 192 h
A-375 = assay: Cytotoxicity against human A-375 cells measured after 8 days; assay type: functional, cell-based; settings: A-375, 192 h

Sequence of 5-hydroxytryptamine receptor 2B (Homo sapiens) (P41595 whole entry): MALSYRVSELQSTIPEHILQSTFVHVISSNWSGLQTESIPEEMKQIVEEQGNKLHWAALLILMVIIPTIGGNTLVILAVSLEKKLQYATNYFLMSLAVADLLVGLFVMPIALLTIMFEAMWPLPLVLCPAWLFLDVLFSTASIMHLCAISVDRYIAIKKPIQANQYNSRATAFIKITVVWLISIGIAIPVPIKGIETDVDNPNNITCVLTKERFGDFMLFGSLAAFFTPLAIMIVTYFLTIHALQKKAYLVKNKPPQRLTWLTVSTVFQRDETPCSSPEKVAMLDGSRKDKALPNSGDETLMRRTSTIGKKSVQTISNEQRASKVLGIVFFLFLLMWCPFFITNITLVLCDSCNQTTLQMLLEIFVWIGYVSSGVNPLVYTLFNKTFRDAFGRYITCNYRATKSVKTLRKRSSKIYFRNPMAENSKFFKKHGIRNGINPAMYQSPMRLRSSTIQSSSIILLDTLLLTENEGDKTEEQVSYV
Sequence of Bromodomain-containing protein 3 (Q15059 whole entry, the tested form may be a part): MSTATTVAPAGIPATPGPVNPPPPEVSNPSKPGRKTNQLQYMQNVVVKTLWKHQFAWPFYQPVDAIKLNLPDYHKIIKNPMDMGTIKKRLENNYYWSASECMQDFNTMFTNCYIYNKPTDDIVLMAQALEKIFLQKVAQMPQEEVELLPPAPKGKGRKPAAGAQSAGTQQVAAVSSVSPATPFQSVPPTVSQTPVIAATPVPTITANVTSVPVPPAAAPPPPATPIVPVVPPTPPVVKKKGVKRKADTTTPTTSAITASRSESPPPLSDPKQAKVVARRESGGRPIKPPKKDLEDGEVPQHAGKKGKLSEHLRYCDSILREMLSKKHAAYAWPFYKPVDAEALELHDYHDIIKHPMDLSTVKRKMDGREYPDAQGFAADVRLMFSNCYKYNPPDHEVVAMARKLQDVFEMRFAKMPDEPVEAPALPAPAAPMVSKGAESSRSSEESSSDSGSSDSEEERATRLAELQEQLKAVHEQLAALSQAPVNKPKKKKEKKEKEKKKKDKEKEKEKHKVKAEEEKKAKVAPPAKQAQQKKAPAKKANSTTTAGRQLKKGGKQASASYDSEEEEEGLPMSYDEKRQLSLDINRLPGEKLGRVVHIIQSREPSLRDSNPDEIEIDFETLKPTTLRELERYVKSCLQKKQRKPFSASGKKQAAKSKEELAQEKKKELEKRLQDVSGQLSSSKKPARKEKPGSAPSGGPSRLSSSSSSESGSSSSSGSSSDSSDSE

| Compound | Activity [1] [%] | Kd [2] [µM] | Activity [3] [%] | IC50 [4] [µM] | Kd [5] [µM] | IC50 (NCI-H1581) [µM] | IC50 (MDA-MB-468) [µM] | IC50 (NCI-H292) [µM] | Kd [6] [µM] | Activity (Rattus norvegicus) [%] | IC50 (HCC4006) [µM] | IC50 (CAL-12T) [µM] | IC50 (COLO 320DM) [µM] | IC50 (EB-3) [µM] | IC50 (WSUDLCL2) [µM] | IC50 [7] [µM] | IC50 (MDA-MB-436) [µM] | IC50 (A-375) [µM] |
| --- | --- | --- | --- | --- | --- | --- | --- | --- | --- | --- | --- | --- | --- | --- | --- | --- | --- | --- |
| C/C=C/Cn1cc(-c2ccc(C(C)(C)O)cc2OC)c2cc[nH]c2c1=O | 8 | 4 | -2 | 5.1 | 3.7 | 20 | 20 | 20 | > 10 | 12 | 20 | 20 | 20 | 20 | 7.32 | 20 | 20 | 20 |
| C/C=C/Cn1cc(-c2ccc(C(=O)N3CCOCC3)cc2)c2cc[nH]c2c1=O | 10 | 4.4 | 22 | 3.4 | 6.6 | 20 | 20 | 20 | > 10 | 11 | 20 | 20 | 20 | 20 | 8.31 | 20 | 20 | 20 |
| C/C=C/Cn1cc(-c2cc(OC)c(C(C)(C)O)cc2OC)c2cc(C)[nH]c2c1=O | – | > 10 | – | > 20 | > 10 | – | – | – | > 10 | – | – | – | – | – | – | – | – | – |
| C/C=C/Cn1cc(-c2cc(OC)c(C(=O)N3CCOCC3)cc2OC)c2cc(C)[nH]c2c1=O | -4 | > 10 | 6 | > 20 | > 10 | 2 | 2 | 2 | > 10 | 17 | 2 | 2 | 2 | 2 | 2 | 2 | 2 | 2 |
